This is an account of results in PMC8951032, “Study of Biological Activities and ADMET-Related Properties of Novel Chlorinated N-arylcinnamamides” (International Journal of Molecular Sciences, 2022).

SMILES strings stand for the structures. Converted amounts (≈) assume the structure as drawn. Where two headings read alike, the source gives them in different places. Bounds are passed on as bounds.

The nature of data set [1]: Lipophilicity determination by RP-HPLC (log k, log D). Type of data set: physicochemical. The settings on record: for log k: MeOH 72%/H2O 28%; for log D6.5: MeOH 72%/acetate buffered saline pH 6.5; for log D7.4: MeOH 72%/acetate buffered saline pH 7.4. How it is done: In addition to the mentioned ADME profile, it is responsible for interactions with biological targets. Lipophilicity is recognized as one of the most important parameters influencing ADME and bioactivity and is also part, e.g., of Lipinski’s Rule of Five (Ro5). This thermodynamic parameter describing the molecule’s affinity for an aqueous or relatively lipophilic environment can be characterized by the logarithm of the partition coefficient (log P). In this study, lipophilicity was measured by reversed-phase high-performance liquid chromatography (RP-HPLC) under isocratic conditions with methanol as the organic modifier in the aqueous mobile phase and the logarithm of the capacity factor k was calculated, which is used as the lipophilicity index converted to the log P scale. In addition to the log k values, the logarithm of the distribution coefficient DpH at pH 6.5 and 7.4 was determined to clarify the behavior of the compounds under physiological conditions and possible ionization. Instead of water, a buffer of suitable pH was used as part of the mobile phase. In addition to the above-mentioned experimental methods, commercially available ChemBioDraw Ultra 13.0 and ACD/Percepta ver. 2012 programs were used to calculate the lipophilicity values of all prepared compounds.
A HPLC separation module Waters Alliance 2695 XE equipped with a Waters Dual Absorbance Detector 2486 (Waters Corp., Milford, MA, USA) was used. A chromatographic column Symmetry® C18 5 μm, 4.6 × 250 mm, Part No. W21751W016 (Waters Corp., Milford, MA, USA) was used. The HPLC separation process was monitored by Empower® 3 Chromatography Manager Software (Waters Corp.). Isocratic elution by a mixture of MeOH p.a. (72%) and H2O-HPLC Mili-Q grade (28%) as a mobile phase was used for the determination of capacity factor k. Isocratic elution by a mixture of MeOH p.a. (72%) and acetate buffered saline (pH 7.4 and pH 6.5) (28%) as a mobile phase was used for the determination of distribution coefficient expressed as D7.4 and D6.5. The total flow of the column was 1.0 mL/min, injection 20 μL, column temperature 40 °C, and sample temperature 10 °C. The detection wavelength of 210 nm was chosen. A KI methanolic solution was used for the determination of the dead times (tD). Retention times (tR) were measured in minutes. The capacity factors k were calculated according to the formula k = (tR − tD)/tD, where tR is the retention time of the solute, and tD is the dead time obtained using an unretained analyte. The distribution coefficients DpH were calculated according to the formula DpH = (tR − tD)/tD. Each experiment was repeated three times.

Data set [2] relates to S. aureus, MRSA, E. faecalis, VRE, M. smegmatis, M. marinum. Put plainly: In vitro antimicrobial screening, all tested strains. The format is cell-based. To be noted: antibacterial/antimycobacterial screening.
Data set [3] concerns Staphylococcus aureus ATCC 29213. Kind of data set: In vitro antistaphylococcal activity, microtitration broth MIC. To be noted: Staphylococcus aureus. Type of data set: cell-based.
Data set [4] has as its system methicillin-resistant S. aureus SA 3202. The data set is described as above. The format is cell-based. The settings on record: Staphylococcus aureus.
In data set [5] the test system is methicillin-resistant S. aureus (MRSA) 63718. The description is as above. Type of data set: cell-based. The settings on record: Staphylococcus aureus.
Data set [6] concerns vancomycin-resistant E. faecalis (VRE) 725B. Kind of data set: In vitro antienterococcal activity, microtitration broth MIC. Type of data set: cell-based, Enterococcus faecalis. The settings on record: 24 h.
Data set [7] has as its system methicillin-resistant S. aureus SA 630. Kind of data set: In vitro antistaphylococcal activity, microtitration broth MIC. Type of data set: cell-based. To be noted: Staphylococcus aureus.
Data set [8] concerns Mycobacterium smegmatis ATCC 700084. Kind of data set: In vitro antimycobacterial activity, broth dilution MIC. Type of data set: cell-based. To be noted: Mycolicibacterium smegmatis.
The test system of data set [9] is Mycobacterium marinum CAMP 5644. Described as above. Type of data set: cell-based. To be noted: CAMP5644, 504 h.

For the molecule `O=C(/C=C/c1ccc(Cl)cc1)Nc1ccc(OC(F)(F)F)cc1Br` [1r, (2E)-N-[2-Bromo-4-(trifluoromethoxy)phenyl]-3-(4-chlorophenyl)prop-2-enamide], in data set [1], the log k is reported as 1.0278, the “log D6.5” value came to 1.0236 and the “log D7.4” value worked out at 1.0284. For the same molecule, the “antimicrobial activity (in words)” value in data set [2] was “total loss of any effect”.
Taken in the same sequence, the figures for `O=C(/C=C/c1ccc(Cl)c(Cl)c1)Nc1ccc(OC(F)(F)F)cc1Br` [2r, (2E)-N-[2-Bromo-4-(trifluoromethoxy)phenyl]-3-(3,4-dichlorophenyl)prop-2-enamide] were 1.2065, 1.2373, 1.2178 and “total loss of any effect”.
For `CC1(C)S[C@@H]2[C@H](NC(=O)[C@H](N)c3ccccc3)C(=O)N2[C@H]1C(=O)O` [AMP, ampicillin, reference compound], the MIC in data set [3] (ATCC29213, 24 h, S. aureus ATCC 29213, read-out: log(1/MIC [M]) SA (converted)) was 5.75e-06 M (≈ 2.01 µg/mL); in data set [3] (ATCC29213, S. aureus ATCC 29213, 24 h, read-out: MIC SA) it was 5.72e-06 M (≈ 2 µg/mL); in data set [4] (24 h, MRSA SA 3202, read-out: log(1/MIC [M]) MRSA3 (converted)) it was above 4.57e-05 M; in [4] (MRSA SA 3202, 24 h, read-out: MIC MRSA3) it was above 4.58e-05 M; in [5] (24 h, MRSA 63718, read-out: log(1/MIC [M]) MRSA1 (converted)) it was 4.57e-05 M (≈ 16 µg/mL); in data set [5] (MRSA 63718, 24 h, read-out: MIC MRSA1), 4.58e-05 M (≈ 16 µg/mL). In addition, the MIC was 5.72e-06 M (≈ 2 µg/mL) in data set [6] (read-out: MIC VRE3); 5.75e-06 M (≈ 2.01 µg/mL) in [6] (read-out: log(1/MIC [M]) VRE3 (converted)); above 4.57e-05 M in [7] (24 h, MRSA SA 630, read-out: log(1/MIC [M]) MRSA2 (converted)); above 4.58e-05 M in [7] (MRSA SA 630, 24 h, read-out: MIC MRSA2).
As for `CO[C@H]1/C=C/O[C@@]2(C)Oc3c(C)c(O)c4c(O)c(c(/C=N/N5CCN(C)CC5)c(O)c4c3C2=O)NC(=O)/C(C)=C\C=C\[C@H](C)[C@H](O)[C@@H](C)[C@@H](O)[C@@H](C)[C@H](OC(C)=O)[C@@H]1C` [RIF, rifampicin, reference compound], the MIC is 1.94e-05 M (≈ 16 µg/mL) in [8] (ATCC700084, 72 h, M. smegmatis ATCC 700084, three days, read-out: MIC MS); 1.95e-05 M (≈ 16 µg/mL) in data set [8] (ATCC700084, M. smegmatis ATCC 700084, read-out: log(1/MIC [M]) MS (converted)); 2.43e-06 M (≈ 2 µg/mL) in [9] (M. marinum CAMP 5644, 21 days, read-out: MIC MM); 2.45e-06 M (≈ 2.02 µg/mL) in data set [9] (M. marinum CAMP 5644, read-out: log(1/MIC [M]) MM (converted)).
